{"source": "patent US5789379A", "about": "“Glucagon-like peptide-2 analogs” (Allelix Biopharmaceutical Inc., priority 1996, dated 1998)", "key": {"human placental DPP-IV": {"target": "T1, human placental DPP-IV (Homo sapiens, UniProt P27487)", "T1 construct": "a solution of human placental DPP-IV (Calbiochem, La Jolla, Calif., cat. # 317624); purchased Calbiochem, La Jolla, Calif; 317624; host or cells: human placenta (tissue-derived)", "T1 sequence (P27487 whole entry)": "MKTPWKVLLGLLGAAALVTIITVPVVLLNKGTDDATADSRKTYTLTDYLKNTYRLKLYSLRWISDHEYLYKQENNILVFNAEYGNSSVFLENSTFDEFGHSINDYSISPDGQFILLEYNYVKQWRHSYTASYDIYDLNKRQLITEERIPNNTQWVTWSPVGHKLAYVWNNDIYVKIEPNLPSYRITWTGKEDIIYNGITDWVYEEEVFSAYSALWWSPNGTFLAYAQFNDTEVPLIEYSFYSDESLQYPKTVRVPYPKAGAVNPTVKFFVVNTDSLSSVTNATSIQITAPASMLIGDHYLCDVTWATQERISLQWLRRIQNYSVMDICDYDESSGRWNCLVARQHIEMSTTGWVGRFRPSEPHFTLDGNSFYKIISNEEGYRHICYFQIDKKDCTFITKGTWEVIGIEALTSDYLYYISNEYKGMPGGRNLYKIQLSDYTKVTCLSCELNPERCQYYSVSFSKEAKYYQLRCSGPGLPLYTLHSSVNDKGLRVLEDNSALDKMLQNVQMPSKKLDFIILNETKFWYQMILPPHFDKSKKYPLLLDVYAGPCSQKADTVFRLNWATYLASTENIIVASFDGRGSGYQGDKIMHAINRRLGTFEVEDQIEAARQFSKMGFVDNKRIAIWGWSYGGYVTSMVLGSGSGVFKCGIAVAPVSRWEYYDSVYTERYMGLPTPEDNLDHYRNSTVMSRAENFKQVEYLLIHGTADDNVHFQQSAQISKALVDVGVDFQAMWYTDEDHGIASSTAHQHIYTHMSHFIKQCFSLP", "assay": "Assay for resistance to dipeptidyl peptidase IV", "assay_type": "in vitro ADME", "details": "for cleavage products detected: after 24 hours incubation with DPP-IV at 37° C., RP-HPLC", "procedure": "Each peptide was tested in duplicate.\nSample components were detected at 214 nanometers (nm)."}, "adenylate cyclase [1]": {"tested_on": "adenylate cyclase", "details": "liver plasma membranes; cited from earlier work"}, "adenylate cyclase [2]": {"tested_on": "adenylate cyclase", "details": "rat hypothalamic and pituitary tissue; cited from earlier work"}, "[3]": {"tested_on": "rat liver and brain tissues", "details": "cited from earlier work"}}, "note": "Square brackets hold non-standard residues; d marks the D form. Ends that are not written are not given here. Peptide text beside a SMILES is read from it.", "data": [{"compound": "HADGSFSDEMNTILDNLATRDFINWLIQTKITD [compound 1, rGLP-2]", "values": [{"measurement": "peptide cleaved by DPP-IV", "setting": "human placental DPP-IV; 24 hour incubation at 37° C., 0.2 mg/ml peptide in PBS pH 7.4, RP-HPLC", "result": 22, "unit": "%"}]}, {"compound": "GLP-2: glucagon-like peptide GLP-2 as studied by Hoosein et al (literature); species not stated", "values": [{"measurement": "stimulation of adenylate cyclase production", "setting": "adenylate cyclase [1]", "result": "nor stimulates"}, {"measurement": "concentration stimulating adenylate cyclase", "setting": "adenylate cyclase [2]", "result": "30 to 50", "unit": "pM"}, {"measurement": "competition with glucagon for binding", "setting": "[3]", "result": "neither competes"}]}, {"compound": "HGDGSFSDEMNTILDNLATRDFINWLIQTKITD [compound 4, [Gly^2]rGLP-2]", "values": [{"measurement": "cleavage products detected", "setting": "human placental DPP-IV", "result": "No cleavage products were detected"}]}, {"compound": "CC[C@H](C)[C@H](NC(=O)[C@H](Cc1ccccc1)NC(=O)[C@H](CC(=O)O)NC(=O)[C@H](CCCNC(=N)N)NC(=O)[C@@H](NC(=O)[C@H](C)NC(=O)[C@H](CC(C)C)NC(=O)[C@H](CC(N)=O)NC(=O)[C@H](CC(=O)O)NC(=O)[C@H](CC(C)C)NC(=O)[C@@H](NC(=O)[C@@H](NC(=O)[C@H](CC(N)=O)NC(=O)[C@H](CCSC)NC(=O)[C@H](CCC(=O)O)NC(=O)[C@H](CC(=O)O)NC(=O)[C@H](CO)NC(=O)[C@H](Cc1ccccc1)NC(=O)[C@H](CO)NC(=O)CNC(=O)[C@H](CC(=O)O)NC(=O)[C@@H](C)NC(=O)[C@@H](N)Cc1c[nH]cn1)[C@@H](C)O)[C@@H](C)CC)[C@@H](C)O)C(=O)N[C@@H](CC(N)=O)C(=O)N[C@@H](Cc1c[nH]c2ccccc12)C(=O)N[C@@H](CC(C)C)C(=O)N[C@H](C(=O)N[C@@H](CCC(N)=O)C(=O)N[C@H](C(=O)N[C@@H](CCCCN)C(=O)N[C@H](C(=O)N[C@H](C(=O)N[C@@H](CC(=O)O)C(=O)O)[C@@H](C)O)[C@@H](C)CC)[C@@H](C)O)[C@@H](C)CC", "note": "[compound 3, [D-Ala^2]rGLP-2] (H-H[dA]DGSFSDEMNTILDNLATRDFINWLIQTKITD-OH)", "values": [{"measurement": "cleavage products detected", "setting": "human placental DPP-IV", "result": "No cleavage products were detected"}]}]}
